Data reported in PubChem BioAssay (NCI).
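Step 1: Grow cells in 96-well plates. Step 2: Expose to compound for 48 hours at 5 concentrations. Step 3: Interpolate endpoints linearly; if unreached, use highest concentration. TGI denotes the concentration required for complete inhibition of growth.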

What was measured:
Test in all cases: NCI-60 cell line screen, 48 h
HCC-2998 colon = system: HCC-2998 colon
CCRF-CEM leukemia = system: CCRF-CEM leukemia
HT29 colon = system: HT29 colon
XF 498 CNS = system: XF 498 CNS
NCI-H226 lung = system: NCI-H226 lung
A498 renal = system: A498 renal
SNB-19 CNS = system: SNB-19 CNS
EKVX NSCLC = system: EKVX NSCLC
SNB-78 CNS = system: SNB-78 CNS
UO-31 renal = system: UO-31 renal
SNB-75 CNS = system: SNB-75 CNS
RXF 393 renal = system: RXF 393 renal
COLO 205 colon = system: COLO 205 colon
LXFL 529 NSCLC = system: LXFL 529 NSCLC
UACC-62 melanoma = system: UACC-62 melanoma
HCT-15 colon = system: HCT-15 colon
SN12C renal = system: SN12C renal
A549 NSCLC = system: A549 NSCLC
ACHN renal = system: ACHN renal
NCI-H23 lung = system: NCI-H23 lung
SR leukemia = system: SR leukemia
SK-MEL-5 melanoma = system: SK-MEL-5 melanoma
UACC-257 melanoma = system: UACC-257 melanoma
786-0 renal = system: 786-0 renal
SK-MEL-28 melanoma = system: SK-MEL-28 melanoma
M19-MEL melanoma = system: M19-MEL melanoma
MALME-3M melanoma = system: MALME-3M melanoma
NCI-H522 lung = system: NCI-H522 lung
SW-620 colon = system: SW-620 colon
K-562 leukemia = system: K-562 leukemia
KM20L2 colon = system: KM20L2 colon
OVCAR-8 ovarian = system: OVCAR-8 ovarian
U251 CNS = system: U251 CNS
HOP-92 NSCLC = system: HOP-92 NSCLC
SF-539 CNS = system: SF-539 CNS
SK-OV-3 ovarian = system: SK-OV-3 ovarian
OVCAR-4 ovarian = system: OVCAR-4 ovarian
DMS 273 small cell lung = system: DMS 273 small cell lung
DLD-1 colon = system: DLD-1 colon
HL-60(TB) leukemia = system: HL-60(TB) leukemia
SF-268 CNS = system: SF-268 CNS
HOP-62 NSCLC = system: HOP-62 NSCLC
HCT-116 colon = system: HCT-116 colon
M14 melanoma = system: M14 melanoma
IGROV1 ovarian = system: IGROV1 ovarian
MOLT-4 leukemia = system: MOLT-4 leukemia
SF-295 CNS = system: SF-295 CNS
HOP-18 NSCLC = system: HOP-18 NSCLC
RPMI-8226 leukemia = system: RPMI-8226 leukemia
KM12 colon = system: KM12 colon
TK-10 renal = system: TK-10 renal
DMS 114 small cell lung = system: DMS 114 small cell lung
SK-MEL-2 melanoma = system: SK-MEL-2 melanoma
CAKI-1 renal = system: CAKI-1 renal
LOX IMVI melanoma = system: LOX IMVI melanoma
OVCAR-5 ovarian = system: OVCAR-5 ovarian
OVCAR-3 ovarian = system: OVCAR-3 ovarian
NCI-H460 lung = system: NCI-H460 lung

Compound `O=C1C2ON3c4ccccc4C(=O)C3(c3ccccc3)C2C(=O)N1c1ccccc1` (configuration not stated) has a TGI (HCC-2998 colon) greater than 100 µM, a TGI (CCRF-CEM leukemia) greater than 100 µM and a TGI (HT29 colon) greater than 100 µM. For the same compound, the TGI (XF 498 CNS) was greater than 100 µM, the TGI (NCI-H226 lung) was greater than 100 µM and the TGI (A498 renal) was greater than 100 µM. For the same compound, the TGI (SNB-19 CNS) was greater than 100 µM, the TGI (EKVX NSCLC) was greater than 100 µM and the TGI (SNB-78 CNS) was greater than 100 µM. The TGI (UO-31 renal) was greater than 100 µM, the TGI (SNB-75 CNS) was greater than 100 µM and the TGI (RXF 393 renal) was greater than 100 µM. The TGI (COLO 205 colon) was greater than 100 µM, the TGI (LXFL 529 NSCLC) was greater than 100 µM and the TGI (UACC-62 melanoma) was greater than 100 µM. It also gave a TGI (HCT-15 colon) greater than 100 µM, a TGI (SN12C renal) greater than 100 µM and a TGI (A549 NSCLC) greater than 100 µM. The TGI (ACHN renal) was greater than 100 µM, the TGI (NCI-H23 lung) was greater than 100 µM and the TGI (SR leukemia) was greater than 100 µM. For the same compound, the TGI (SK-MEL-5 melanoma) was greater than 100 µM, the TGI (UACC-257 melanoma) was greater than 100 µM and the TGI (786-0 renal) was greater than 100 µM. It also gave a TGI (SK-MEL-28 melanoma) greater than 100 µM, a TGI (M19-MEL melanoma) greater than 100 µM and a TGI (MALME-3M melanoma) greater than 100 µM. The TGI (NCI-H522 lung) was greater than 100 µM, the TGI (SW-620 colon) was greater than 100 µM and the TGI (K-562 leukemia) was greater than 100 µM. For the same compound, the TGI (KM20L2 colon) was greater than 100 µM, the TGI (OVCAR-8 ovarian) was greater than 100 µM and the TGI (U251 CNS) was greater than 100 µM. For the same compound, the TGI (HOP-92 NSCLC) was greater than 100 µM, the TGI (SF-539 CNS) was greater than 100 µM and the TGI (SK-OV-3 ovarian) was greater than 100 µM. For the same compound, the TGI (OVCAR-4 ovarian) was greater than 100 µM, the TGI (DMS 273 small cell lung) was greater than 100 µM and the TGI (DLD-1 colon) was greater than 100 µM. It also gave a TGI (HL-60(TB) leukemia) greater than 100 µM, a TGI (SF-268 CNS) greater than 100 µM and a TGI (HOP-62 NSCLC) greater than 100 µM. For the same compound, the TGI (HCT-116 colon) was greater than 100 µM, the TGI (M14 melanoma) was greater than 100 µM and the TGI (IGROV1 ovarian) was greater than 100 µM. The TGI (MOLT-4 leukemia) was greater than 100 µM, the TGI (SF-295 CNS) was greater than 100 µM and the TGI (HOP-18 NSCLC) was greater than 100 µM. The TGI (RPMI-8226 leukemia) was greater than 100 µM.
`CC1=NN(C(=O)c2ccc(Cl)cc2)C(=O)/C1=C/c1ccco1` gave a TGI (KM12 colon) greater than 100 µM, a TGI (HCC-2998 colon) greater than 100 µM and a TGI (CCRF-CEM leukemia) greater than 100 µM. It also gave a TGI (HT29 colon) greater than 100 µM, a TGI (TK-10 renal) greater than 100 µM and a TGI (XF 498 CNS) greater than 100 µM. The TGI (A498 renal) was greater than 100 µM, the TGI (SNB-19 CNS) was greater than 100 µM and the TGI (EKVX NSCLC) was greater than 100 µM. It also gave a TGI (DMS 114 small cell lung) greater than 100 µM, a TGI (SK-MEL-2 melanoma) greater than 100 µM and a TGI (SNB-78 CNS) greater than 100 µM. It also gave a TGI (UO-31 renal) greater than 100 µM, a TGI (RXF 393 renal) greater than 100 µM and a TGI (COLO 205 colon) greater than 100 µM. For the same compound, the TGI (LXFL 529 NSCLC) was greater than 100 µM, the TGI (UACC-62 melanoma) was greater than 100 µM and the TGI (CAKI-1 renal) was greater than 100 µM. For the same compound, the TGI (HCT-15 colon) was greater than 100 µM, the TGI (SN12C renal) was greater than 100 µM and the TGI (A549 NSCLC) was greater than 100 µM. For the same compound, the TGI (ACHN renal) was greater than 100 µM, the TGI (NCI-H23 lung) was greater than 100 µM and the TGI (SK-MEL-5 melanoma) was greater than 100 µM. For the same compound, the TGI (UACC-257 melanoma) was greater than 100 µM, the TGI (786-0 renal) was greater than 100 µM and the TGI (SK-MEL-28 melanoma) was greater than 100 µM. The TGI (M19-MEL melanoma) was greater than 100 µM, the TGI (LOX IMVI melanoma) was greater than 100 µM and the TGI (MALME-3M melanoma) was greater than 100 µM. For the same compound, the TGI (NCI-H522 lung) was greater than 100 µM, the TGI (SW-620 colon) was greater than 100 µM and the TGI (OVCAR-5 ovarian) was greater than 100 µM. The TGI (OVCAR-3 ovarian) was greater than 100 µM, the TGI (K-562 leukemia) was greater than 100 µM and the TGI (KM20L2 colon) was greater than 100 µM. The TGI (OVCAR-8 ovarian) was greater than 100 µM, the TGI (U251 CNS) was greater than 100 µM and the TGI (HOP-92 NSCLC) was greater than 100 µM. For the same compound, the TGI (SF-539 CNS) was greater than 100 µM, the TGI (SK-OV-3 ovarian) was greater than 100 µM and the TGI (OVCAR-4 ovarian) was greater than 100 µM. It also gave a TGI (DLD-1 colon) greater than 100 µM, a TGI (HL-60(TB) leukemia) greater than 100 µM and a TGI (SF-268 CNS) greater than 100 µM. For the same compound, the TGI (HOP-62 NSCLC) was greater than 100 µM, the TGI (HCT-116 colon) was greater than 100 µM and the TGI (M14 melanoma) was greater than 100 µM. It also gave a TGI (IGROV1 ovarian) greater than 100 µM, a TGI (MOLT-4 leukemia) greater than 100 µM and a TGI (SF-295 CNS) greater than 100 µM. It also gave a TGI (RPMI-8226 leukemia) greater than 100 µM and a TGI (NCI-H460 lung) greater than 100 µM.
With `N#CCCN(CCC#N)c1ccc(/C=C2\N=C(c3cc([N+](=O)[O-])ccc3Cl)N(NC(=O)CC(=O)Nc3ccccc3Cl)C2=O)cc1` the TGI (KM12 colon) was greater than 100 µM, the TGI (HCC-2998 colon) was greater than 100 µM and the TGI (CCRF-CEM leukemia) was greater than 100 µM. For the same compound, the TGI (TK-10 renal) was greater than 100 µM, the TGI (XF 498 CNS) was greater than 100 µM and the TGI (NCI-H226 lung) was 35.6 µM. The TGI (SNB-19 CNS) was greater than 100 µM, the TGI (EKVX NSCLC) was greater than 100 µM and the TGI (DMS 114 small cell lung) was greater than 100 µM. For the same compound, the TGI (SK-MEL-2 melanoma) was greater than 100 µM, the TGI (SNB-78 CNS) was greater than 100 µM and the TGI (UO-31 renal) was greater than 100 µM. For the same compound, the TGI (RXF 393 renal) was greater than 100 µM, the TGI (COLO 205 colon) was greater than 100 µM and the TGI (LXFL 529 NSCLC) was greater than 100 µM. It also gave a TGI (UACC-62 melanoma) greater than 100 µM, a TGI (CAKI-1 renal) greater than 100 µM and a TGI (HCT-15 colon) greater than 100 µM. For the same compound, the TGI (SN12C renal) was greater than 100 µM, the TGI (A549 NSCLC) was greater than 100 µM and the TGI (ACHN renal) was greater than 100 µM. It also gave a TGI (NCI-H23 lung) greater than 100 µM, a TGI (SR leukemia) greater than 100 µM and a TGI (SK-MEL-5 melanoma) greater than 100 µM. For the same compound, the TGI (SK-MEL-28 melanoma) was greater than 100 µM, the TGI (M19-MEL melanoma) was greater than 100 µM and the TGI (LOX IMVI melanoma) was greater than 100 µM. The TGI (MALME-3M melanoma) was greater than 100 µM, the TGI (NCI-H522 lung) was greater than 100 µM and the TGI (SW-620 colon) was greater than 100 µM. It also gave a TGI (OVCAR-5 ovarian) of 66.5 µM, a TGI (OVCAR-3 ovarian) greater than 100 µM and a TGI (K-562 leukemia) greater than 100 µM. For the same compound, the TGI (KM20L2 colon) was 34.5 µM, the TGI (OVCAR-8 ovarian) was greater than 100 µM and the TGI (U251 CNS) was greater than 100 µM. The TGI (HOP-92 NSCLC) was greater than 100 µM, the TGI (SF-539 CNS) was greater than 100 µM and the TGI (SK-OV-3 ovarian) was greater than 100 µM. The TGI (OVCAR-4 ovarian) was greater than 100 µM, the TGI (DMS 273 small cell lung) was greater than 100 µM and the TGI (DLD-1 colon) was greater than 100 µM. For the same compound, the TGI (SF-268 CNS) was greater than 100 µM, the TGI (HOP-62 NSCLC) was greater than 100 µM and the TGI (HCT-116 colon) was greater than 100 µM. The TGI (M14 melanoma) was greater than 100 µM, the TGI (IGROV1 ovarian) was greater than 100 µM and the TGI (MOLT-4 leukemia) was greater than 100 µM. For the same compound, the TGI (SF-295 CNS) was greater than 100 µM and the TGI (RPMI-8226 leukemia) was greater than 100 µM.
